Assay results: publication PMC3931136 (Scientific Reports, 2014)

Test system: S. suis BgaC
Assay: p-nitrophenol release, absorbance at […] nm
Type: biochemical, Streptococcus suis
Settings: pH 5.5, 42 °C, 30 min (stated optimum); PBS, 10 mM MgCl2, 10 mM DTT

- Km: 398 µM
SMILES: O=[N+]([O-])c1ccc(O[C@@H]2O[C@H](CO)[C@H](O)[C@H](O)[C@H]2O)cc1 [pNPG, p-nitrophenyl-β-galactopyranoside]
